These results are taken from patent publication US20160362408A1 (Bayer Pharma Aktiengesellschaft, priority 2013, published 2016).

Structures are written as SMILES.

For this test, the target named is T1, recombinant guanylate cyclase reporter cell line (Rattus norvegicus, UniProt P19686+P20595).
T1 construct: expressed in transfected cells
T1 sequence (P19686 1-690): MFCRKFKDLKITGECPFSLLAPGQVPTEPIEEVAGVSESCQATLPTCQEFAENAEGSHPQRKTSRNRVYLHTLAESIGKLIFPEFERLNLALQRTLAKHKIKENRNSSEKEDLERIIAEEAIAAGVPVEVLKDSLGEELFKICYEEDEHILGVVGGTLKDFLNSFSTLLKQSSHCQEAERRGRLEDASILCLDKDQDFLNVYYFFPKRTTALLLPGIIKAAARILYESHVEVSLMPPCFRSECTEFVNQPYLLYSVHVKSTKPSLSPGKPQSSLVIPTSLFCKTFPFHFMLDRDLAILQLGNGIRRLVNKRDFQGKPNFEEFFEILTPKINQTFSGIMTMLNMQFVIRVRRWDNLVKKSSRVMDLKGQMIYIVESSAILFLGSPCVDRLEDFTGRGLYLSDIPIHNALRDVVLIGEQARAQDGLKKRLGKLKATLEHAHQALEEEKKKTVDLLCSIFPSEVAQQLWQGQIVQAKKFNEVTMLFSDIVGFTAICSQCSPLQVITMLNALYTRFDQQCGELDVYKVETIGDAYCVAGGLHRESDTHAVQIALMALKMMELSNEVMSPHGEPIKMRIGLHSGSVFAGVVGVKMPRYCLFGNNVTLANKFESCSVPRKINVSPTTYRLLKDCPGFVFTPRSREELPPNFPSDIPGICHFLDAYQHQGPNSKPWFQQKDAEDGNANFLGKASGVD
T1 sequence (P20595 1-619): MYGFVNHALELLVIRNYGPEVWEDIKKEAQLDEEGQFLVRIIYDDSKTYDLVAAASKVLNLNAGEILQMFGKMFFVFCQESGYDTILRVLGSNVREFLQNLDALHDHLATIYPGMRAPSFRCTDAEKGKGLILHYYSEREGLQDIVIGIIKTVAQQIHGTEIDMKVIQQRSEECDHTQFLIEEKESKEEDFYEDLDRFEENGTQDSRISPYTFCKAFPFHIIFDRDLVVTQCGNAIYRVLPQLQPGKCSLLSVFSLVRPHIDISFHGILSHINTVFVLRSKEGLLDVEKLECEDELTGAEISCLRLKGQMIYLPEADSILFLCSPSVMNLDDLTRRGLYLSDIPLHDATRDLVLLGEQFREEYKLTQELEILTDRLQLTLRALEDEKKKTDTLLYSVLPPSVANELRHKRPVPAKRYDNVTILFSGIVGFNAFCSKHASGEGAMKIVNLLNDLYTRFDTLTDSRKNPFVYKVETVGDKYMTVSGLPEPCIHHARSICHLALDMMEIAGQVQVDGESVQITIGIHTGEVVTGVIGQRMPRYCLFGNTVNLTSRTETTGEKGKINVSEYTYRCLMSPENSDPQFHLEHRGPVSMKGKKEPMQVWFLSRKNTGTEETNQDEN
Put plainly: Effect on a recombinant guanylate cyclase reporter cell line. It counts as cell-based. Conditions: MEC = minimum effective concentration; in some cases mean values for individual determinations. The method, then:
B-2. Effect on a Recombinant Guanylate Cyclase Reporter Cell Line
The cellular action of the compounds of the invention is determined using a recombinant guanylate cyclase reporter cell line, as described in F. Wunder et al., Anal. Biochem. 339, 104-112 (2005).
Representative MEC values (MEC=minimum effective concentration) for the compounds of the invention are shown in the table below (in some cases as mean values for individual determinations): […]
With `Cc1cc(OCc2c(F)cccc2F)c2nc(C)c(C(=O)Nc3ccnc4ccc(F)cc34)n2c1` [Example 91, 8-[(2,6-Difluorobenzyl)oxy]-N-(6-fluoroquinolin-4-yl)-2,6-dimethylimidazo[1,2-a]pyridine-3-carboxamide], the MEC stood at 0.01 µM. For the compound `Cc1nc2c(OCc3c(F)cccc3F)cccn2c1C(=O)Nc1cccc2cnccc12` [Example 67], the MEC was 0.3 µM. Under `Cc1nc2c(OCc3c(F)cccc3F)cccn2c1C(=O)Nc1ccnn1C(C)C` [Example 21] stands 1.0 µM. For the compound `Cc1nc2c(OCc3c(F)cccc3F)cc(Cl)cn2c1C(=O)Nc1cnn(CCO)c1` [Example 46, 6-chloro-8-[(2,6-difluorobenzyl)oxy]-N-[1-(2-hydroxyethyl)-1H-pyrazol-4-yl]-2-methylimidazo[1,2-a]pyridine-3-carboxamide], the MEC was determined as 0.1 µM. With `Cc1nc2c(OCc3c(F)cccc3F)cccn2c1C(=O)Nc1n[nH]c2ccc(F)cc12` [Example 115, 8-[(2,6-Difluorobenzyl)oxy]-N-(5-fluoro-1H-indazol-3-yl)-2-methylimidazo[1,2-a]pyridine-3-carboxamide], the MEC is 1.0 µM.

`Cc1nc2c(OCC3CCCCC3)cccn2c1C(=O)Nc1cnn(CCO)c1` [Example 124, 8-(cyclohexylmethoxy)-N-[1-(2-hydroxyethyl)-1H-pyrazol-4-yl]-2-methylimidazo[1,2-a]pyridine-3-carboxamide]: the MEC was determined as 1.0 µM. For `O=C(Nc1cnn(CCO)c1)c1c(C2CC2)nc2c(OCc3c(F)cccc3F)cccn12` [Example 142, 2-Cyclopropyl-8-[(2,6-difluorobenzyl)oxy]-N-[1-(2-hydroxyethyl)-1H-pyrazol-4-yl]imidazo[1,2-a]pyridine-3-carboxamide], the MEC is 10 µM.

With `Cc1nc2c(OCc3c(F)cccc3F)cccn2c1C(=O)Nc1cccc(Cl)c1C` [Example 14], the MEC was 0.3 µM. Consider `Cc1cccc(NC(=O)c2c(C)nc3c(OCc4c(F)cccc4F)cccn23)c1C` [Example 12], for which the MEC turned out to be 0.3 µM. Take `Cc1nc2c(OCc3c(F)cccc3F)cc(Cl)cn2c1C(=O)Nc1cnn(CCF)c1` [Example 141, 6-chloro-8-[(2,6-difluorobenzyl)oxy]-N-[1-(2-fluoroethyl)-1H-pyrazol-4-yl]-2-methylimidazo[1,2-a]pyridine-3-carboxamide]: the MEC worked out at 1.0 µM. As for `Cc1nc2c(OCc3c(F)cccc3F)cccn2c1C(=O)Nc1ccccc1` [Example 11], the MEC was determined as 0.3 µM. As to `Cc1n[nH]c(C)c1NC(=O)c1c(C)nc2c(OCc3c(F)cccc3F)cc(N3CCOCC3)cn12` [Example 51, 8-[(2,6-difluorobenzyl)oxy]-N-(3,5-dimethyl-1H-pyrazol-4-yl)-2-methyl-6-(morpholin-4-yl)imidazo[1,2-a]pyridine-3-carboxamide], the MEC came out at 1.0 µM. For `Cc1nc2c(OCc3c(F)cccc3F)cccn2c1C(=O)Nc1cnn(CC(F)(F)F)c1` [Example 30, 8-[(2,6-difluorobenzyl)oxy]-2-methyl-N-[1-(2,2,2-trifluoroethyl)-1H-pyrazol-4-yl]imidazo[1,2-a]pyridine-3-carboxamide], the MEC is 0.3 µM. As to `Cc1nc2c(OCc3c(F)cccc3F)cccn2c1C(=O)Nc1ccnc2ccc(F)cc12` [Example 54, 8-[(2,6-Difluorobenzyl)oxy]-N-(6-fluoroquinolin-4-yl)-2-methylimidazo[1,2-a]pyridine-3-carboxamide], the MEC is 0.03 µM.

For the compound `Cc1nc2c(OCc3c(F)cccc3F)cccn2c1C(=O)Nc1cnn(CCN2CCOCC2)c1` [Example 132, 8-[(2,6-difluorobenzyl)oxy]-2-methyl-N-{1-[2-(morpholin-4-yl)ethyl]-1H-pyrazol-4-yl} imidazo[1,2-a]pyridine-3-carboxamide], the MEC came to 1.0 µM. Regarding `Cc1nc2c(OCc3c(F)cccc3F)cccn2c1C(=O)Nc1n[nH]c2ccccc12` [Example 80, 8-[(2,6-Difluorobenzyl)oxy]-N-(1H-indazol-3-yl)-2-methylimidazo[1,2-a]pyridine-3-carboxamide], the MEC was found to be 0.3 µM. Turning to `Cc1nc2c(OCc3c(F)cccc3F)cc(Cl)cn2c1C(=O)Nc1cn[nH]c1C` [Example 47, 6-chloro-8-[(2,6-difluorobenzyl)oxy]-2-methyl-N-(5-methyl-1H-pyrazol-4-yl)imidazo[1,2-a]pyridine-3-carboxamide + 6-chloro-8-[(2,6-difluorobenzyl)oxy]-2-methyl-N-(3-methyl-1H-pyrazol-4-yl)imidazo[1,2-a]pyridine-3-carboxamide], the MEC was 0.3 µM.

Regarding `Cc1cc2c(NC(=O)c3c(C)nc4c(OCc5c(F)cccc5F)cccn34)cccc2nn1` [Example 70], the MEC came out at 0.3 µM.

As to `Cc1cc(OCc2c(F)cccc2F)c2nc(C)c(C(=O)Nc3c(C(F)(F)F)n[nH]c3C)n2c1` [Example 94], the MEC turned out to be 0.1 µM. Under `Cc1n[nH]c(C)c1NC(=O)c1c(C)nc2c(OCc3c(F)cccc3F)cc(F)cn12` [Example 48, 8-[(2,6-Difluorobenzyl)oxy]-N-(3,5-dimethyl-1H-pyrazol-4-yl)-6-fluoro-2-methylimidazo[1,2-a]pyridine-3-carboxamide] stands 0.3 µM; under `Cc1nc2c(OCc3c(F)cccc3F)cc(Cl)cn2c1C(=O)Nc1cnn(C(C)C)c1` [Example 45, 6-chloro-8-[(2,6-difluorobenzyl)oxy]-N-(1-isopropyl-1H-pyrazol-4-yl)-2-methylimidazo[1,2-a]pyridine-3-carboxamide], 0.3 µM. Turning to `Cc1n[nH]c(C)c1NC(=O)c1c(C)nc2c(OCc3cccc(F)c3F)cc(Cl)cn12` [Example 53, 6-chloro-8-[(2,3-difluorobenzyl)oxy]-N-(3,5-dimethyl-1H-pyrazol-4-yl)-2-methylimidazo[1,2-a]pyridine-3-carboxamide], the MEC amounted to 1.0 µM. As to `Cc1nc2c(OCc3c(F)cccc3F)cc(Cl)cn2c1C(=O)Nc1cnn(CC(F)(F)F)c1` [Example 44, 6-chloro-8-[(2,6-difluorobenzyl)oxy]-2-methyl-N-[1-(2,2,2-trifluoroethyl)-1H-pyrazol-4-yl]imidazo[1,2-a]pyridine-3-carboxamide], the MEC worked out at 1.0 µM. `Cc1ccc2c(NC(=O)c3c(C)nc4c(OCc5c(F)cccc5F)cccn34)cccc2n1` [Example 64]: the MEC is 0.2 µM. On to `Cc1nc2c(OCc3c(F)cccc3F)cccn2c1C(=O)Nc1ccccc1CN` [Example 111, N-[2-(Aminomethyl)phenyl]-8-[(2,6-difluorobenzyl)oxy]-2-methylimidazo[1,2-a]pyridine-3-carboxamide], for which the MEC was determined as 1.0 µM.

Take `Cc1n[nH]c(C)c1NC(=O)c1c(C)nc2c(OCc3c(F)cccc3F)cc(N3CCCC3)cn12` [Example 50, 8-[(2,6-difluorobenzyl)oxy]-N-(3,5-dimethyl-1H-pyrazol-4-yl)-2-methyl-6-(pyrrolidin-1-yl)imidazo[1,2-a]pyridine-3-carboxamide]: the MEC amounted to 1.0 µM. Take `Cc1nc2c(OCc3c(F)cccc3F)cccn2c1C(=O)Nc1nnc(C2CC2)s1` [Example 84]: the MEC was 3.0 µM.

Regarding `Cc1cnc(NC(=O)c2c(C)nc3c(OCc4c(F)cccc4F)cccn23)s1` [Example 146, 8-[(2,6-difluorobenzyl)oxy]-2-methyl-N-(5-methyl-1,3-thiazol-2-yl)imidazo[1,2-a]pyridine-3-carboxamide], the MEC turned out to be 3.0 µM. With `Cc1nc2c(OCc3c(F)cccc3F)cccn2c1C(=O)Nc1ccc(N2CCNCC2)c(F)c1` [Example 106, 8-[(2,6-difluorobenzyl)oxy]-N-[3-fluoro-4-(piperazin-1-yl)phenyl]-2-methylimidazo[1,2-a]pyridine-3-carboxamide], the MEC was 1.0 µM.
